# Source: publication PMC11999338, “Factor XI localization in human deep venous thrombus and function of activated factor XI on venous thrombus formation and hemostasis” (Research and Practice in Thrombosis and Haemostasis, 2025)
# Entries after “also recorded” stand apart in the source; their conditions may differ.
# Experiments:
# skin bleeding = test: Rabbit skin bleeding time and volume; assay type: in vivo; settings: rabbits; for bleeding time / bleeding volume: skin incision 90 minutes after oral administration, ONO-1600586 5, 15, 50 mg/kg, rivaroxaban 1.5, 5, 15 mg/kg
# Experimental: The protocols of the venous thrombosis and skin bleeding models in rabbits were as follows (Supplementary Figure 2). First, fasting rabbits were orally administered a solvent as a control (n = 10), a FXIa inhibitor (ONO-1600586, 5 mg/kg, n = 10; 15 mg/kg, n = 10; and 50 mg/kg, n = 11), or a FXa inhibitor (rivaroxaban, 1.5 mg/kg, 5 mg/kg, and 15 mg/kg, n = 10 each) using a Nelaton catheter of 5 mm diameter (IZUMO Health Co, Ltd) 90 minutes before thrombus formation. […] Additional anesthesia with one-third amount of the above-mentioned mixture of drugs was administered 80 minutes after the first injection, and all surgical operations proceeded under aseptic conditions. Ninety minutes after administering the solvent, rivaroxaban (1.5, 5, and 15 mg/kg), and ONO-1600586 (5, 15, and 50 mg/kg), skin bleeding was induced using 2 lines of 3 cm length incisions on both legs of the rabbit. Next, wet Kimwipes (Kimberly-Clark Corp) were placed on the injured lesions, and the bleeding time was measured. To measure the bleeding volume, we collected the Kimwipes into a falcon tube filled with 20 mL of saline each, 1 to 2 minutes for 30 minutes, and then removed the Kimwipes. The collected blood was centrifuged at 900 × g for 5 minutes at room temperature, and the supernatant was discarded. One milliliter of distilled water was added to the pellet and then hemolyzed. The bleeding volume was estimated using a spectrophotometer at 540 nm (SpectraMax 190 Microplate Reader, Molecular Devices, LLC). A standard curve was generated through the sequential dilution of rabbit blood. Finally, the number of erythrocytes was measured using a hematology analyzer (XP-300, Sysmex).
# jugular vein thrombus = test: Stasis-induced thrombus formation in rabbit jugular veins; assay type: in vivo; settings: rabbits, oral ONO-1600586 50 mg/kg or rivaroxaban 15 mg/kg 60 minutes before stasis, 6 hours stasis
# Experimental: The protocols of venous thrombosis by stasis were as follows (Supplementary Figure 4). First, fasting rabbits were orally administered a solvent as a control (n = 8), a FXIa inhibitor (ONO-1600586, 50 mg/kg, n = 8), or a FXa inhibitor (rivaroxaban, 15 mg/kg, n = 8) using a Nelaton catheter of 5 mm diameter (IZUMO Health Co, Ltd) 60 minutes before thrombus formation. The process of thrombus formation was performed under general anesthesia through the subcutaneous injection of a mixture of medetomidine hydrochloride (0.08 mg/kg body weight), butorphanol tartrate (0.2 mg/kg), and midazolam (0.4 mg/kg). Briefly, 60 minutes postadministration of the solvent, ONO-1600586, or rivaroxaban, venous thrombi were induced in rabbit jugular veins by ligations and luminal stenosis. To induce luminal stenosis, a 1 mm polyethylene tube was placed outside the vessel. Both the jugular vein and polyethylene tube were ligated 4 cm upstream of the ligature, and the tube was removed (Supplementary Figure 5). Next, 6 hours after stasis in the jugular vein, the rabbits were infused with heparin (500 U/kg, i.v.). They were then euthanized with an overdose of pentobarbital (60 mg/kg, i.v.), and the jugular veins were sampled. In this model, the animals were not perfused with phosphate-buffered saline because the thrombi were fragile. The venous thrombi were immediately removed from the venous wall and weighed.
# PT and aPTT = PT and aPTT after oral administration in rabbit stasis model; assay type: in vivo; settings: rabbits, stasis model, 1, 3, and 7 hours; ONO-1600586 50 mg/mL, rivaroxaban 15 mg/mL (so in the source)
# Experimental: The protocols of venous thrombosis by stasis were as follows (Supplementary Figure 4). First, fasting rabbits were orally administered a solvent as a control (n = 8), a FXIa inhibitor (ONO-1600586, 50 mg/kg, n = 8), or a FXa inhibitor (rivaroxaban, 15 mg/kg, n = 8) using a Nelaton catheter of 5 mm diameter (IZUMO Health Co, Ltd) 60 minutes before thrombus formation. The process of thrombus formation was performed under general anesthesia through the subcutaneous injection of a mixture of medetomidine hydrochloride (0.08 mg/kg body weight), butorphanol tartrate (0.2 mg/kg), and midazolam (0.4 mg/kg).
# Blood samples were collected from the central ear arteries of the rabbits before and 1, 3, and 7 hours after administering the solvent, ONO-1600586, and rivaroxaban in 3.8% sodium citrate (9:1 v/v) using 21-gauge needles. Plasma samples were centrifuged at 1500 × g for 15 minutes at room temperature. PT and aPTT were measured using a coagulation timer (KC-1 Delta, Tcoag Ireland Ltd) and reagents (aPTT: ACTIN, Siemens; PT: THROMBOCHECK PT+, Sysmex). Data are expressed as a ratio of PT and aPTT to those before administration.
# [1] = tested on: thrombi on the collagen surface; test: Ex vivo rabbit blood perfusion in flow chamber on collagen surface (70/s); assay type: cell-based; settings: rabbit blood 75 minutes after oral ONO-1600586 50 mg/kg or rivaroxaban 15 mg/kg, shear rate 70/s
# Experimental: Blood from rabbits 75 minutes postadministration of a solvent as a control (n = 5), a FXIa inhibitor (ONO-1600586, 50 mg/kg, n = 5), or a FXa inhibitor (rivaroxaban, 15 mg/kg, n = 5) was collected using 21-gauge needles into plastic syringes containing corn trypsin inhibitor (Molecular Innovations; final concentration 20 μg/mL) and a specific FXa inhibitor, Arixtra (Organon Sanofi-Synthelabo, final concentration 6 μg/mL). Anticoagulated whole blood was stored at room temperature and used for perfusion studies within 1 hour of collection. Next, mepacrine (quinacrine dihydrochloride, Sigma-Aldrich, final concentration 5 μM) was added to the blood before perfusion for platelet labeling, which enables the visualization of platelet-surface interaction through epifluorescence videomicroscopy. Collagen from the horse tendon (Collagen Reagent HORM, Takeda Pharmaceutical, 20 μg/mL) was immobilized on glass coverslips (24 × 50 mm) in parallel-plate flow chambers, as previously described. Blood samples were perfused through the chamber using a syringe pump (KDS100, KD Scientific Inc) at a constant flow rate (15 mL/h) to achieve wall shear rates of 70/s. Platelets interacting with the immobilized collagen were visualized using an inverted stage epifluorescence microscope (IX71, OLYMPUS). Images were captured at 3, 6, and 9 minutes after perfusion with a photosensitive color CCD camera (DP70, Olympus), and surface covering areas were semiquantified using a morphometric analysis system (WinROOF, Mitani).
# After perfusion, coverslips were immediately fixed in 95% alcohol for 1 hour at room temperature, stained using antibodies for fibrin (Millipore), and faintly counterstained with Meyer’s hematoxylin. […] Finally, the number of attached cells with multilobulated nuclei was counted as the neutrophil number in 5 fields under a 20× objective lens and expressed as the number of neutrophils per mm^2.
smiles,measurement,setting,value
O=C(NC[C@H]1CN(c2ccc(N3CCOCC3=O)cc2)C(=O)O1)c1ccc(Cl)s1 [rivaroxaban],bleeding time compared with the control,skin bleeding; 15 mg/kg oral,significantly prolonged
same,bleeding volume compared with the control,skin bleeding; 15 mg/kg oral,increased
same,bleeding time,skin bleeding,prolonged bleeding time
same,bleeding volume,skin bleeding,increased bleeding volume dose-dependently
same,bleeding time,skin bleeding; listed as Rivaroxaban,dose-dependently prolonged
same,bleeding volume,skin bleeding; listed as Rivaroxaban,increased
same,stasis-induced venous thrombus weight compared with control,jugular vein thrombus,significantly reduced; also recorded: similarly reduced
same,PT after oral administration,PT and aPTT,prolonged
same,aPTT after oral administration,PT and aPTT,prolonged
same,fibrin formation (fibrin-immunopositive area) in the flow chamber,[1],markedly decreased; also recorded: Absence or little fibrin formation
same,neutrophil attachment on the thrombus,[1],did not affect
same,surface covering areas,"[1]; 3, 6, 9 minutes",did not differ
